# Results reported in PubChem BioAssay AID1645865 (Buhrlage Lab, Dana-Farber Cancer Institute and Novartis …, 2021).
# Calls of active or inactive are those of the source.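 How the source made its calls: active means maximal inhibition of the USP30 enzyme reaching 30% or more across the dose series; inactive means the rest.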
# Target: Ubiquitin carboxyl-terminal hydrolase 30 (Homo sapiens) (UniProt Q70CQ3)
# Assay: ubiquitin-specific protease 30 DUB inhibitors, concentration-effect, biochemical, validation of primary actives (AID 1645865)
# Settings: purified USP30, Ub-rhodamine cleavage, fluorescence, 2 h
# Sequence of Ubiquitin carboxyl-terminal hydrolase 30 (Homo sapiens) (Q70CQ3 whole entry, looked up): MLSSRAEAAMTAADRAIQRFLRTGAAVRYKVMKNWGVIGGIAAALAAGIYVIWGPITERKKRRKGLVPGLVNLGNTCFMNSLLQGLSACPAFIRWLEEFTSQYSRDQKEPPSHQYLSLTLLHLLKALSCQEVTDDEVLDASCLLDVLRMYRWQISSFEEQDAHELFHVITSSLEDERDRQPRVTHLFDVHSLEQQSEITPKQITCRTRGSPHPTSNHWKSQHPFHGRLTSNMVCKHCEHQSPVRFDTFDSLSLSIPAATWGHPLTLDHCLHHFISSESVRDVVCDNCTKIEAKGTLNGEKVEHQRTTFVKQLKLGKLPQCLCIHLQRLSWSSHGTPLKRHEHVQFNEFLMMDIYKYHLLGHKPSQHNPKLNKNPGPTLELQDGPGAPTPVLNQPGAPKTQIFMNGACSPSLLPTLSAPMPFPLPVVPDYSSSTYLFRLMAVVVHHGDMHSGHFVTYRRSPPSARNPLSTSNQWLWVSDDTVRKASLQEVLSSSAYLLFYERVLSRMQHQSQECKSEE
row,SMILES,IC50
1,COc1c2c(cc3cc(O)c4c(=O)cc(C)oc4c13)CCC2=O,> 50 µM (inactive)
2,COc1ccc2[nH]c3c(c2c1)CCN1C(=O)N(c2ccccc2C(=O)NCc2ccccc2)C(=O)[C@]31C,28.5 µM
3,COc1ccc(CCNC(=O)c2c(N)n(-c3cccc(Cl)c3)c3nc4ccccc4nc23)cc1,> 50 µM (inactive)
4,COc1cnc(CSc2ncccn2)cc1OCC(=O)Nc1cc(C)ccc1C,41.3 µM
5,O=C(CSc1nc2cc(S(=O)(=O)Nc3ccccc3Cl)ccc2o1)Nc1ccc(N2CCOCC2)cc1,49.6 µM
6,CC(OC(=O)CNC(=O)c1ccc(Br)cc1)C(=O)Nc1ccc2c(c1)OCCO2 (configuration not stated),28 µM
7,O=C(Nc1cccc(Cl)c1)c1ncn2c1CNS(=O)(=O)c1ccccc1-2,12.3 µM
8,COc1ccc(-c2nc(-c3nnn(Cc4ccc(F)cc4)c3C)no2)c(OC)c1,8.97 µM
9,O=C(Nc1cccc(-c2nc3ccccc3[nH]2)c1)c1cc2ccccc2oc1=O,0.304 µM
10,Cc1oc(-c2ccc(C(=O)NCC3COCCO3)cc2)nc1CN1CCc2ccccc21 (configuration not stated),> 50 µM (inactive)
11,Cc1ccc(NC(=O)Cn2cc(S(=O)(=O)N3CCCC3)ccc2=O)cc1,20.3 µM
12,Cc1c(OCC(=O)NCC(=O)N2CCC3(O)CCCCC3C2)ccc2c3c(c(=O)oc12)CCCC3 (configuration not stated),23.7 µM
13,O=C(NC1(O)C(=O)c2ccccc2C1=O)c1ccc(-c2csnn2)cc1,32.1 µM
14,Cc1c(Cl)cccc1NC(=O)Cn1ccc2ccccc2c1=O,3.03 µM
15,Cc1ccc2cc3c(nc2n1)CCN(Cc1ccc(F)cc1)C3,> 50 µM (inactive)
16,CNS(=O)(=O)c1ccc(CNC(=O)c2cc(-c3ccc(C)cc3)no2)cc1,18 µM
17,Cc1ccc(S(=O)(=O)N(C)C)cc1NC(=O)Cc1ccc(Cl)c(Cl)c1,> 50 µM (inactive)
18,CN(C)Cc1ccc(C(=O)Nc2ccc(-c3nccs3)cc2)cc1,> 50 µM (inactive)
19,CC1CCN(S(=O)(=O)c2ccc3[nH]cc(C(=O)NCc4ccco4)c(=O)c3c2)CC1,> 50 µM (inactive)
20,Cn1c(-c2nnc(SCC(=O)Nc3ccccc3F)o2)cc2ccccc21,14 µM
21,CC(C)(C)n1ncc2c(=O)n(Cc3cccc([N+](=O)[O-])c3)cnc21,> 50 µM (inactive)
22,COc1cc(N)c(Cl)cc1C(=O)OCC(=O)c1ccc2c(c1)OCCO2,> 50 µM (inactive)
23,C=C1Nc2ccccc2C(=O)N1c1cccc(NC(=O)c2ccc(C)c(C)c2)c1,> 50 µM (inactive)
24,COCCCNC(=O)c1ccc(Cn2c(=O)c3ccccc3n(CC(=O)NC3CCCCC3)c2=O)cc1,24.8 µM
25,Cc1ccc(Nc2nc(O)c(CC(=O)Nc3ccccc3C)s2)cc1C,17.3 µM

row,SMILES,IC50
1,N#Cc1ccc(NC(=O)Nc2cccn(Cc3ccccc3F)c2=O)cc1,3.2 µM
2,Cc1ccc2c(c1)[C@]1(C(=O)N2)[C@@H]2C(=O)N(c3cccc(C(F)(F)F)c3)C(=O)[C@@H]2C2CCCN21 (some centres not stated),> 50 µM (inactive)
3,O=C(Nc1cccc(Cl)c1)N1CCC(c2cc(-c3ccco3)n[nH]2)CC1,> 50 µM (inactive)
4,CCCCc1nc2sc3c(SCC(=O)NCc4ccccc4)ncnc3c2c2c1CCC2,> 50 µM (inactive)
5,Fc1ccc(Cc2nc(-c3ccc4nncn4c3)no2)cc1,> 50 µM (inactive)
6,COc1cc(C(=O)OCc2csc(-c3ccccc3)n2)ccc1OCC(=O)Nc1ccc(F)cc1,> 50 µM (inactive)
7,COc1cc2c(cc1NC(=O)c1ccc(-n3cnnn3)cc1)oc1ccccc12,0.221 µM
8,Cc1cc(O)cc2cc3c(c(O)c12)C(=O)CCC3O (configuration not stated),> 50 µM (inactive)
9,COc1ccc(OC)c(NC(=O)C2=C(C)Nc3ncnn3C2c2ccccc2OCc2ccc(C)cc2)c1 (configuration not stated),17.5 µM
10,O=C(Nc1cccc(Cl)c1)N1CCN(c2cc(C(F)(F)F)ccn2)CC1,8.77 µM
11,O=C(CC1C(=O)Nc2nc(-c3ccccc3)nn21)Nc1cccc2ccccc12 (configuration not stated),4.38 µM
12,CCc1nc2c(NC(=O)Nc3cccc(C(=O)OC)c3)cccn2n1,> 50 µM (inactive)
13,COc1ccc(C)cc1NC(=O)C1CC(=O)Nc2nc(SCc3ccccc3)nn21 (configuration not stated),15.7 µM
14,COc1ccc(S(=O)(=O)N2CCN3Cc4ccccc4N(C)CC3C2)cc1 (configuration not stated),> 50 µM (inactive)
15,Cc1cc(=O)n(CC(=O)Nc2ccccc2C)c(Nc2ccc(F)cc2)n1,11.2 µM
16,O=C(c1nnn(Cc2ccc(Cl)cc2)c1-n1cccc1)N1CCCC1,> 50 µM (inactive)
17,CC1=C2C(=NCCN1)C(=O)N(c1ccccc1)C2c1cccnc1 (configuration not stated),> 50 µM (inactive)
18,COCCNC(=O)c1ccn(-c2ccc3ccc(-c4cnn(C)c4)cn23)n1,> 50 µM (inactive)
19,O=C(Cc1noc2ccccc12)NCC(=O)Nc1ccc(Cl)cc1,21.6 µM
20,O=C(Cn1cccc1-c1nc(-c2ccccc2)cs1)N1CCOCC1,20.6 µM
21,O=C(c1ccnn1-c1ccc2ccc(-c3ccncc3)cn12)N1CCCC1,> 50 µM (inactive)
22,Cn1nc(-c2nc(-c3ccccc3)no2)c2c1CCN(C(=O)C1CC1)C2,> 50 µM (inactive)
23,O=C(Nc1ccc2nccnc2c1)c1cccc(C(F)(F)F)c1,> 50 µM (inactive)
24,COc1ccc(C(C(=O)NCc2ccccc2)N(C(=O)CCN2CCc3ccccc32)c2ccc(C)c(C)c2)cc1 (configuration not stated),> 50 µM (inactive)
25,COc1ccc(CCNC(=O)COc2ncnc3oc(C)c(C)c23)cc1OC,> 50 µM (inactive)

row,SMILES,IC50
1,Cc1cc(=O)n(CC(=O)NCc2ccccc2F)c2c1c(C)nn2-c1ccccc1,32.7 µM
2,CSc1ccccc1NC(=O)c1ccc(-n2cccn2)nn1,2.32 µM
3,CC1(C)Cc2c(sc3nc(Cc4ccccc4)nc(SCC(=O)Nc4ccccc4)c23)CO1,1.82 µM
4,CN1CC2CN(C(=O)Nc3cccnc3)CCN2Cc2ccccc21 (configuration not stated),> 50 µM (inactive)
5,Cc1cccc(C)c1NC(=O)Cn1c(=O)n(CCCCC(=O)NCc2ccc3c(c2)OCO3)c(=O)c2ccccc21,1.5 µM
6,Cc1ccc(Cn2cc(-c3noc(-c4ccncc4)n3)nn2)cc1,27.6 µM
7,CCC(CC)n1[nH]c(=O)c2c1NC(=O)CSC2c1ccc2c(c1)OCO2 (configuration not stated),16.7 µM
8,O=C(Cn1c(NCc2ccccc2)nc2ccccc21)NCC(F)(F)F,33.1 µM
9,Cc1cc(C)c(O)c(-c2cc(C(=O)Nc3ccccc3Cl)[nH]n2)c1,2.1 µM
10,CC(C)(C)C(=O)[C@@H]1[C@@H](C(=O)c2ccc3c(c2)OCO3)[C@@]2(C(=O)Nc3ccccc32)[C@H]2c3ccccc3C=CN12,> 50 µM (inactive)
11,c1coc(CNc2nc3ccccc3n3nnnc23)c1,> 50 µM (inactive)
12,Cc1ccccc1OCCSc1nc2ccccc2n1CC(=O)NC1CC1,15.5 µM
13,N#Cc1cccc(NC(=O)Cn2cccc(-c3nc(-c4ccccc4)no3)c2=O)c1,> 50 µM (inactive)
14,O=C1C[C@@H]2O[C@H](CNC(=O)[C@@H]3CN(CCN3C(=O)C3CCOCC3)C(=O)[C@@H]3C[C@@H](CN3Cc3ccc(F)c(F)c3)N1)[C@@H](O)[C@H]2O,> 50 µM (inactive)
15,Cn1c(CCN2CCCC2)nc2cc(NS(=O)(=O)c3ccccc3)ccc21,> 50 µM (inactive)
16,CC1CCCCN1CCCNC(=O)c1ccc(N2CCc3ccccc32)s1 (configuration not stated),30.9 µM
17,Cc1cc(C)c2c(-n3cccc3)c(C(=O)NCCc3ccc(S(N)(=O)=O)cc3)sc2n1,> 50 µM (inactive)
18,CC1CCc2c(sc3nc(CC#N)[nH]c(=O)c23)C1 (configuration not stated),> 50 µM (inactive)
19,Cc1ccc(C(=O)Nc2cc3c4c(c2)CC(=O)N4CCC3)cc1C,> 50 µM (inactive)
20,O=C(COc1ccc2c(-c3ccccc3)cc(=O)oc2c1)Nc1cccnc1,1.3 µM
21,O=C(COC(=O)c1ccc(CN2CCCC2=O)cc1)c1ccc2c(c1)OCCO2,> 50 µM (inactive)
22,O=C(Nc1ccc(N2CCOCC2)cc1)c1ccc(-c2ccc(N3CCCC3)nn2)cc1,> 50 µM (inactive)
23,COc1ccccc1C(=O)N1CCc2[nH]c3ccc(F)cc3c2C1,> 50 µM (inactive)
24,CC(=O)c1ccccc1NC(=O)COc1ccc(-c2ccc(C#N)cc2)cc1,2.51 µM
25,Cc1nc2nc(SCc3nc4ccccc4n3C)[nH]c2cc1Br,4.82 µM

row,SMILES,IC50
1,COc1ccc(-c2cc(C(C)=O)c(C)n2CCC(=O)Nc2ccc(OC)cc2OC)cc1,32.2 µM
2,O=C(CC1C(=O)N(Cc2cccnc2)c2nc3ccccc3n21)Nc1cccc2ccccc12 (configuration not stated),> 50 µM (inactive)
3,Cc1ccc(C)c(CSC2=NCCN2C(=O)c2ccco2)c1,> 50 µM (inactive)
4,CCC1=C(c2ccc(C)cc2)S(=O)(=O)NC1=NCC(=O)NCc1ccccc1F,> 50 µM (inactive)
5,Cc1nc2c3ccccc3nc(NCc3ccc4c(c3)OCO4)n2n1,32.9 µM
6,Fc1ccc(Cn2ccc(-c3cnc(-c4ccccc4)s3)n2)cc1,> 50 µM (inactive)
7,CCCc1nc2sc3c(NCCN4CCOCC4)ncnc3c2c2c1CCC2,> 50 µM (inactive)
8,Cc1ccc(NC(=O)c2cnc(N3CCOCC3)nc2)cc1F,27.6 µM
9,Cc1cc(C(=O)N2CCOC3(CC=CCN(CCc4ccccc4)C3=O)C2)n2nccc2n1 (configuration not stated),> 50 µM (inactive)
10,O=C(Nc1ccncc1)c1ncoc1-c1cccc(Cl)c1,35.5 µM
11,O=C(NCc1cccc(NC(=O)C2CC2)c1)Nc1cccc2ccccc12,21.7 µM
12,COC(=O)c1ccc(C(=O)Nc2cc3ccccc3cc2NC(=O)c2ccc(C(=O)OC)cc2)cc1,0.853 µM
13,COc1ccc(/C=C/C(=O)Nc2cccc(S(=O)(=O)Nc3ccccc3Cl)c2)c(OC)c1,25.6 µM
14,CC(C)CCCCCCCCCCC(=O)N(C)[C@H](CO)C(=O)N[C@H](C)C(=O)NCC(=O)N(C)C1C(=O)N[C@@H](C)C(=O)NC(C(=O)O)Cc2ccc(O)c(c2)-c2cc1ccc2O (some centres not stated),> 50 µM (inactive)
15,COc1ccc(NC(=O)CN2C(=O)c3ccccc3Sc3ccc(C(=O)N4CCCC4)cc32)c(OC)c1,> 50 µM (inactive)
16,Cn1c(=O)c2c(nc3n(-c4ccccc4F)c(-c4ccccc4)cn23)n(C)c1=O,> 50 µM (inactive)
17,COc1ccc(-c2nc3n(n2)C(CC(=O)Nc2cccc4ccccc24)C(=O)N3)cc1 (configuration not stated),2.87 µM
18,COC(=O)c1cc(C)sc1NC(=O)c1cccc(OC)c1OC,> 50 µM (inactive)
19,O=C(NCc1ccco1)c1ccc2c(c1)N(Cc1cccc(F)c1)C(=O)c1ccccc1S2,> 50 µM (inactive)
20,COc1ccc(CNc2nn3c(-c4cncc(OC)c4)cnc3s2)cc1,1.5 µM
21,Cc1cccc(C(=O)OCC(=O)Nc2ccc3[nH]c(=O)[nH]c3c2)c1C,2.85 µM
22,CCOC(=O)c1cc2c(ccn2C)n1CC(=O)N1CCC(C)CC1,> 50 µM (inactive)
